Data taken from patent US20050058603A1, “Drug delivery system based on polymer nanoshells” (Case Western Reserve University, priority 2003, published 2005).

Test system: MCF-7 cells
Assay: Cytotoxicity study of DOX loaded shells vs free doxorubicin solution and empty shells
Conditions: 5 days
Experimental: Human breast cancer MCF-7 cells were obtained from ATCC.
Free DOX solution, DOX-loaded shells, and empty shells of different concentrations were used in cell cytotoxicity studies for 5 days.
A cytotoxicity study of DOX loaded shells was carried out in vitro as compared to free doxorubicin solution (FIG. 13).
All samples were incubated in culture media for 5 days.

In the case of `COc1cccc2c1C(=O)c1c(O)c3c(c(O)c1C2=O)C[C@@](O)(C(=O)CO)C[C@@H]3O[C@H]1C[C@H](N)[C@H](O)[C@H](C)O1.Cl` [Doxorubicin solution, Doxorubicin], the “cytotoxicity compared to free DOX solution” value is reported as “strongest cytotoxicity”.
